Measurements reported in US6897237B2, “MMP-12 inhibitors” (Shionogi & Co. Ltd., priority 2000, dated 2005).

Legend:
[1] = biological target: T1, MMP-1 (Homo sapiens, UniProt P03956); experiment: Assay for inhibitory activities on MMPs (fluorogenic peptide substrate): MMP-1; assay type: biochemical; conditions: substrate MOCAc-Pro-Leu-Gly-Leu-A2Pr(DNP)-Ala-Arg-NH2
T1 construct: purchased Yagai
T1 sequence (P03956 100-469): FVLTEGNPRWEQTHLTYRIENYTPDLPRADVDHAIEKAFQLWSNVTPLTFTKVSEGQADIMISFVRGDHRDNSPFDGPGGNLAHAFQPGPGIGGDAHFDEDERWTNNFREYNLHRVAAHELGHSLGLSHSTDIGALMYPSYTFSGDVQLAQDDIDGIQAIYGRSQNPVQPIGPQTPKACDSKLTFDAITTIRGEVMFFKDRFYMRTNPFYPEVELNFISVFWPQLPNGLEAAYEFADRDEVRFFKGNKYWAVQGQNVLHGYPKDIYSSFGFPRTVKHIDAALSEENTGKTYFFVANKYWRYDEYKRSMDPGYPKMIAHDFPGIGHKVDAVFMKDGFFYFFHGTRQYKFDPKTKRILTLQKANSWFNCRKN
Description: MMP-1 was purchased from Yagai.
(§1) The enzymatic activity on MMPs was analyzed by the method described in “C. Graham Knight, Frances Willenbrock and Gillian Murphy: A novel coumarin-labelled peptide for sensitive continuous assays of the matrix metalloproteinases: FEBS LETT., 296, (1992), 263-266”. The substrate: MOCAc-Pro-Leu-Gly-Leu-A2Pr(DNP)-Ala-Arg-NH2 was purchased from Peptide Institute, Inc., Osaka, Japan. The measurement of the inhibitory activities (IC50) was carried out by the following four methods;
(§2) (A) Reaction with substrate, enzyme (MMPs) and inhibitor
(§3) (B) Reaction with substrate and inhibitor, without enzyme
(§4) (C) Reaction with substrate and enzyme (MMPs), without inhibitor
(§5) (D) Reaction with substrate only
(§6) IC50 values were calculated by using the following formula and each fluorescence values of above four methods (A to D).
(§7) % inhibition={1−(A−B)/(C−D)}×100
(§8) IC50 means the concentration required to inhibit 50% of the enzyme activity.

[2] = biological target: T2, MMP-2 (Homo sapiens, UniProt P08253); experiment: Assay for inhibitory activities on MMPs (fluorogenic peptide substrate): MMP-2; assay type: biochemical; conditions: substrate MOCAc-Pro-Leu-Gly-Leu-A2Pr(DNP)-Ala-Arg-NH2
T2 construct: purchased Calbiochem-Novabiochem International, Inc
T2 sequence (P08253 110-660): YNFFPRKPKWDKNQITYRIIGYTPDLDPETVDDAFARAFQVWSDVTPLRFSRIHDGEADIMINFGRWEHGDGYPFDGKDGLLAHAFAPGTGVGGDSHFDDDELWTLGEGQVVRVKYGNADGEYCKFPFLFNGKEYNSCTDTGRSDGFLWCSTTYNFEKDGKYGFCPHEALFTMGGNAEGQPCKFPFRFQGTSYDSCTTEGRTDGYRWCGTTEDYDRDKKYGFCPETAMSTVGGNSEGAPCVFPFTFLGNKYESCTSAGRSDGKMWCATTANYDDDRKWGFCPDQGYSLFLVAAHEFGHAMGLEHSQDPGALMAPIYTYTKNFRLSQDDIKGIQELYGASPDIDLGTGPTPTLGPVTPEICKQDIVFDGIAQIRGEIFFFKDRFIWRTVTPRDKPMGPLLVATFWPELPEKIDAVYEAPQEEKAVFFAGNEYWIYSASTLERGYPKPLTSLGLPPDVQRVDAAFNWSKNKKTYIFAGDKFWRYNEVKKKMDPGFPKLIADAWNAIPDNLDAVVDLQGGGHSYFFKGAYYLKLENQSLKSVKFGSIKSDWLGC
Description: MMP-2 was purchased from Calbiochem-Novabiochem International, Inc.
as §1, §2, §3, §4, §5, §6, §7, §8

[3] = biological target: T3, MMP-13 catalytic domain (Homo sapiens, UniProt P45452); experiment: Assay for inhibitory activities on MMPs (fluorogenic peptide substrate): MMP-13; assay type: biochemical; conditions: substrate MOCAc-Pro-Leu-Gly-Leu-A2Pr(DNP)-Ala-Arg-NH2
T3 construct: catalytic domain (^104Tyr˜^267Gly); His-tag; enterokinase digestion-site; made in house; host or cells: Escherichia coli
Description: In regard to MMP-13, mRNA was prepared from carcinoma cell SW1353 derived from human cartilage stimulate by IL-1, TNF and catalytic domain (^104Tyr˜^267Gly) was amplified with RT-PCR. This was cloned in Escherichia coli expression vector pTrc99AHE inserted with His-tag sequence and enterokinase digestion-site, induced and expressed by IPTG (Isopropyl-β-D-thiogalactopyranoside) and expressed in a insoluble fraction. Isolation of MMP-1.3 from a insoluble fraction was carried out by dissolving in modifier (6M urea) by a usual method and purification with metal chelate chromatography (Ni Chelateing Sepharose). And then removing modifier (6M urea) with dialyze and refolding of the enzyme spontaneously gave activated MMP-13.
as §1, §2, §3, §4, §5, §6, §7, §8

[4] = tested on: Sprague-Dawley male rats exposed to cigarette smoke; experiment: Cigarette smoke exposure in rats, lung mechanics; assay type: in vivo, rat; conditions: 30 mg/kg p.o. twice daily
Description: Sprague-Dawley male rats (390-430 g initial body weight) were exposed daily to smoke from commercial filtered cigarettes (30 cigarettes/rat/day, 5 days/week, for 7 to 8 weeks) with a smoke-generating and whole-body exposure system. The animals received 30 mg/kg p.o. twice daily of compound (B-6), which was suspended with 0.5% methyl cellulose. Vehicle animals received 2 ml/kg of 0.5% methyl cellulose. At 16-24 hr after the last exposure with cigarette smoke, anesthesia was induced with intraperitoneal injection of 40 mg/kg of pentobarbital sodium. Immediately after muscle relaxation with intravenous pancuronium bromide (0.3 mg/rat), animals were mechanically ventilated with a pressure-limited ventilator and were evaluated dynamic compliance. After exsanguination, the lung was attached to a glass syringe via a connector tube and continuously inflated through the airway to a transpulmonary pressure of 30 cmH2O, deflated them to a Ptp of 0 cmH2O, and aspirated them to a Ptp of −20 cmH2O. The change of Ptp and lung volume was monitored and recorded as the deflation pressure-volume (P-V) curve. Static lung compliance defined as the slope of steep portion of the deflation P-V curve was evaluated. Inspiratory capacity (IC) defined as the difference in lung volume between total lung capacity at a Ptp of 25 cmH2O and functional residual capacity at a Ptp of 0 cmH2O was evaluated.
Data are expressed as means ±S.D. Statistical analysis was performed with one-sided Student's t-test. A value of P<0.05 was considered significant.

[5] = cigarette smoke exposure 7 to 8 weeks, means ± S.D., n = 7

For `C[C@@H](NS(=O)(=O)c1ccc(C#Cc2ccc3ccccc3c2)s1)C(=O)O` [Compound B-6], the IC50 [1] was > 10000 nM, the IC50 [2] was 350 nM and the IC50 [3] was 840 nM. The “effect on increase of dynamic compliance by cigarette smoke exposure (in words)” value [4] was “tended to attenuate the increase”, the “effect on increase of inspiratory capacity by cigarette smoke exposure (in words)” value [4] was “tended to attenuate the increase” and the “effect on increase of static lung compliance by cigarette smoke exposure (in words)” value [4] was “significantly reduced the increase”. The Inspiratory capacity [4, 5] was 21.76 ± 1.85 mL/kg, the dynamic compliance [4, 5] was 0.96 ± 0.17 ml/cmH2O/kg and the Static lung compliance ([4]; cigarette smoke exposure 7 to 8 weeks, means ± S.D., n = 7, P < 0.05 vs. Cigarette smoke exposure) was 2.05 ± 0.25 ml/cmH2O/kg.
